The results in this text go back to patent US5196421A, “Excitatory amino acid receptor antagonists in methods for the use thereof” (priority 1992, dated 1993).

Structures are written as SMILES.

The target of experiment [1] is T1, Strychnine-Insensitive [^3 H]Glycine Binding Sites, washed membranes of rat brain cortex (Rattus norvegicus, UniProt P35439).
T1 construct: washed membranes of rat brain cortex; from tissue; host or cells: brain cortex membranes, male Sprague-Dawley rats (150-175 g)
Briefly: biochemical. To be noted: for inhibition at 10 µM: 1 h, read-out: [^3 H]-Glycine Binding % DSPL10 @ 10 μM, 10 μM test compound, 60 minutes on ice. As to the method:
(§1) Referring to Table IV, there are shown the results obtained in testing a representative number of these compounds. In Table IV, the activity of the compounds for EAA receptor binding is indicated. Compounds were evaluated for their ability to displace [^3 H]-CGS191755, [^3 H]-glycine, [^3 H]-AMPA and [^3 H]-kainate at a screening concentration of 10 μM.
(§2) Binding assays, except for glycine binding, were performed in accordance with the methods described in Schoepp et al., J. Pharmacology and Exp. Therap., Vol. 255, No. 3, pp. 1301-1308 (1990). For all binding assays, male Sprague-Dawley rats (150-175 g) were used. Displacement of the specific binding of ^3 H]CGS19755 (10 nM) to Triton-X-treated synaptosomal membranes of rat forebrain was used to determine NMDA receptor affinity. Nonspecific binding was determined using 10 μM L-glutamate. Samples were incubated in an ice bath for 30 minutes, and bound ligand was separated from the free ligand by rapid filtration through Whatman GF/B glass fiber filters.
The compounds were examined for their ability to displace [^3 H]-glycine from washed membranes of rat brain cortex according to the methods of Shinohara et al., "Ontogeny of Strychnine-Insensitive [^3 H]Glycine Binding Sites in Rat Forebrain", Neurosci. Lett. 105 (1990) 307-311. In each assay, […] [^3 H]-glycine and 25 μg tissue were incubated with test compounds (10 μM in a total volume of 0.5 ml for 60 minutes on ice; incubations were terminated by centrifugation. Non-specific binding was defined as that remaining in the presence of 10 μM D-serine.

The subject of experiment [2] is AMPA receptor ([^3 H]AMPA binding, crude membranes of rat forebrain). Put plainly: [^3 H]-AMPA displacement, EAA receptor binding. The conditions noted are these: 10 μM test compound, [^3 H]AMPA 5 nM, 100 mM KSCN. The procedure:
as §1, §2
The binding of [^3 H]AMPA (5 nM) was conducted with crude membranes of rat forebrain in the presence of 100 mM KSCN, as described by Nielsen et al., "Studies on Receptor-Active Conformations of Excitatory Amino Acid Agonists and Antagonists," Eur. J. Med. Chem. Chim. Ther. 21:433-437 (1986). Nonspecific binding was determined with 10 μM nonlabeled AMPA.

Experiment [3] has as its system kainate (KA) receptor ([^3 H]Kainate binding, washed synaptosomal membranes from the rat forebrain). Put plainly: [^3 H]-kainate displacement, EAA receptor binding. The conditions noted are these: 10 μM test compound, [^3 H]Kainate 5 nM, pH 7.4, 30 min. The procedure: as §1, §2
[^3 H]Kainate binding was performed using washed synaptosomal membranes from the rat forebrain, prepared as described by Simon et al., "Binding of [^3 H]Kainic Acid, an Analogue of L-Glutamate, to Brain Membranes," J. Neurochem. 26:141-147 (1976). [^3 H]Kainate (5 nM) was added to 50 mM Tris-HCl buffer (pH 7.4 at 4°) containing 200-300 μg/ml of tissue protein. Samples were incubated for 30 minutes in an ice bath and then rapidly filtered using a Brandel cell harvester and Whatman GF/C filters. Filters were washed twice with 3 ml of cold buffer. Nonspecific binding was determined using 100 μM nonlabeled kainate.

Take `CCCc1nnc2cnc3cc(Cl)c(Cl)cc3n12` [Compound 5, 1-n-propyl-7,8-dichloro-1,2,4-triazolo[4,3-a]quinoxaline]: the inhibition at 10 µM in experiment [1] turned out to be 2%. Further, the “AMPA % DSPL @ 10 μM” value in experiment [2] is given as -1.6%. In experiment [3], the “KA % DSPL @ 10 μM” value is 3.9%.
On the same counts, the results for `O=c1[nH]c2cc(Cl)c(Cl)cc2n2c(-c3ccccc3)nnc12` [Compound 12, 1-Phenyl-7,8-dichloro-1,2,4-triazolo[4,3-a]quinoxalin-4(5H)-one] are -1%, 3.6% and 8.2%.
On the same counts, the results for `O=[N+]([O-])c1ccc2c(c1)ncc1nncn12` [Compound 16, 7-nitro-1,2,4-triazolo[4,3-a]quinoxaline] are -5%, 1.7% and 3.0%.
On the same counts, the results for `O=c1[nH]c2ccc(Br)cc2c2ccnn12` [Compound 28, 9-bromopyrazolo[1,5-c]quinazolin-5(6H)-one] are 4%, 20.7% and 2.6%.
Consider `[N-]=[N+]=Nc1cc2c(cc1F)[nH]c(=O)c1nnnn12` [Compound 27, 7-fluoro-8-azidotetrazoloquinoxalin-4(5H)-one], for which the inhibition at 10 µM in experiment [1] worked out at 5%. In addition, in experiment [2], the “AMPA % DSPL @ 10 μM” value is 1.7%. Also, the “KA % DSPL @ 10 μM” value in experiment [3] is given as 2.5%.
On to `[N-]=[N+]=Nc1cc2c(cc1F)ncc1nnnn12` [Compound 26, 7-fluoro-8-azidotetrazoloquinoxaline], for which the “[^3 H]-Glycine Binding % DSPL10 @ 10 μM” value in experiment [1] (10 μM test compound, 60 minutes on ice) is -2%. Moreover, the “AMPA % DSPL @ 10 μM” value in experiment [2] is -1.8%. The “KA % DSPL @ 10 μM” value in experiment [3] worked out at 5.5%.
For `O=c1[nH]c2ccc(Br)cc2n2nnnc12` [Compound 21, 8-bromotetrazolo[1,5-a]quinoxalin-4(5H)-one], the inhibition at 10 µM in experiment [1] turned out to be 6%. Further, the “AMPA % DSPL @ 10 μM” value in experiment [2] amounted to 10.2%. Further, the “KA % DSPL @ 10 μM” value in experiment [3] is given as 30.8%.
On the same counts, the results for `Cc1cc2c3ccccc3[nH]c(=O)n2n1` [Compound 34, 2-methylpyrazolo[1,5-c]quinazolin-5(6H)-one] are 13%, 0.2% and 0.9%.
